Numbering of substitutions follows the chain as printed.
How the values were obtained:
[1] = target: T1, P2X2 receptor mutant X2-KLKML(2) (E134KD136K) (Homo sapiens, UniProt Q9UBL9, D148K/E146K); assay: Two-electrode voltage clamp, P2X2 mutant X2-KLKML; assay type: cell-based; settings: double mutation E134KD136K
T1 sequence (Q9UBL9 1-471 E146K/D148K): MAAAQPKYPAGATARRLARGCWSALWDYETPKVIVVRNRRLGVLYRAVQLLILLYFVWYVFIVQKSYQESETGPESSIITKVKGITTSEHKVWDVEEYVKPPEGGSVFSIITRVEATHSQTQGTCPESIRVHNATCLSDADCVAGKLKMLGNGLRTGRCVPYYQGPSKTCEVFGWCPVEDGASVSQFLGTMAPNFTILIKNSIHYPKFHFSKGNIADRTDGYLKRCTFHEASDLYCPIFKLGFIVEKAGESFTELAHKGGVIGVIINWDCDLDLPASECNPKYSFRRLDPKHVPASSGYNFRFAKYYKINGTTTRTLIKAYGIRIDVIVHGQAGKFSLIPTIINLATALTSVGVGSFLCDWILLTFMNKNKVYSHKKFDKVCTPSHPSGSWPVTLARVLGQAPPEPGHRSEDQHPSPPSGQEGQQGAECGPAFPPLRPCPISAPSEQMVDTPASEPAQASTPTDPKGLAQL

P2X2 Cys1(3-4) chimera = target: T2, P2X2 Cys1(3-4) chimera (Homo sapiens, UniProt Q9UBL9, A144P/D148K/E146K/G151A/L147A/L150K/L154I/M149R/N152Q/R158K/V143T); assay: Two-electrode voltage clamp, chimera P2X2 Cys1; assay type: cell-based
T2 sequence (Q9UBL9 1-471 V143T/A144P/E146K/L147A/D148K/M149R/L150K/G151A/N152Q/L154I/R158K): T1 sequence (Q9UBL9 1-471 E146K/D148K) with V143T, A144P, L147A, M149R, L150K, G151A, N152Q, L154I, R158K

[2] = tested on: WT or mutant P2X receptors; assay: Holding current in the absence of ATP; assay type: cell-based, human
[3] = target: T3, P2X2 receptor mutant D136K (Homo sapiens, UniProt Q9UBL9, D148K); assay: Two-electrode voltage clamp, P2X2 mutant D136K; assay type: cell-based
T3 sequence (Q9UBL9 1-471 D148K): T1 sequence (Q9UBL9 1-471 E146K/D148K) with K146E

[4] = target: T4, P2X1 receptor mutant KAKRK → EADML(4) (Homo sapiens, UniProt P51575, K136E/K138D/K140L/R139M); assay: Two-electrode voltage clamp, P2X1 mutant X1-EADML; assay type: cell-based
T4 sequence (P51575 1-399 K136E/K138D/R139M/K140L): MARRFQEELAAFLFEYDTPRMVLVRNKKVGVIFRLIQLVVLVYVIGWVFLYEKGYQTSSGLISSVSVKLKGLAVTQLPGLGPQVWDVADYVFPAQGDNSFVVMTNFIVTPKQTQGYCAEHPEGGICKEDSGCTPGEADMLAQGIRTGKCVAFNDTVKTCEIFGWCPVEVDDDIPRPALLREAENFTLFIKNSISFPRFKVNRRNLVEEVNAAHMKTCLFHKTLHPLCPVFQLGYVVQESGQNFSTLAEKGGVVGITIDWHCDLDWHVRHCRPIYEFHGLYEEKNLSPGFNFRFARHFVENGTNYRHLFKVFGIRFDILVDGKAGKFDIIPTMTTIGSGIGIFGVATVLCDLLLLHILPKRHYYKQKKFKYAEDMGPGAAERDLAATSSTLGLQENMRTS

[5] = target: T5, P2X1 receptor mutant K138D (Homo sapiens, UniProt P51575, K138D); assay: Two-electrode voltage clamp, P2X1 mutant K138D; assay type: cell-based
T5 sequence (P51575 1-399 K138D): T4 sequence (P51575 1-399 K136E/K138D/R139M/K140L) with E136K, M139R, L140K

Increase in suramin sensitivity compared with WT P2X2 [1] [fold] | Increase in suramin sensitivity compared with WT P2X2 (P2X2 Cys1(3-4) chimera) [fold] | Effect of mutation on suramin sensitivity [3] | Reduction in NF449 sensitivity compared with WT P2X1 [4] [fold] | IC50 (P2X2 Cys1(3-4) chimera; read-out: NF449 IC50, vs EC90 ATP) [µM] | Effect on holding current ([2]; NF449 10 µM) | Effect of mutation on NF449 sensitivity [3] | Reduction in NF449 sensitivity compared with P2X1 WT [5] [fold] | SMILES | Effect on holding current ([2]; suramin 100 µM)
10 | ~30 | no effect | – | – | – | – | – | Cc1ccc(C(=O)Nc2ccc(S(=O)(=O)O)c3cc(S(=O)(=O)O)cc(S(=O)(=O)O)c23)cc1NC(=O)c1cccc(NC(=O)Nc2cccc(C(=O)Nc3cc(C(=O)Nc4ccc(S(=O)(=O)O)c5cc(S(=O)(=O)O)cc(S(=O)(=O)O)c45)ccc3C)c2)c1 [suramin] | no effect
– | – | – | ~600 | 1.1 | no effect | no effect | ~10 | O=C(Nc1cc(C(=O)Nc2ccc(S(=O)(=O)O)cc2S(=O)(=O)O)cc(C(=O)Nc2ccc(S(=O)(=O)O)cc2S(=O)(=O)O)c1)Nc1cc(C(=O)Nc2ccc(S(=O)(=O)O)cc2S(=O)(=O)O)cc(C(=O)Nc2ccc(S(=O)(=O)O)cc2S(=O)(=O)O)c1 [NF449, 4,4′,4′′,4′′′-(carbonylbis(imino-5,1,3-benzenetriyl-bis(carbonylimino)))tetrakis-benzene-1,3-disulphonic acid] | –

— publication PMC3268193 (British Journal of Pharmacology, 2012)
